Results as given in PMC4220016, “The binding characteristics and orientation of a novel radioligand with distinct properties at 5-HT3A and 5-HT3AB receptors” (Neuropharmacology, 2014).
Where two headings read alike, the source gives them in different places.

Legend:
5-HT3AB receptors [1] = target: T1, 5-HT3AB receptors (Homo sapiens, UniProt O95264+P46098); assay: Competition binding with [^3H]VUF10166 at 5-HT3AB receptors
T1 sequence (P46098 24-478): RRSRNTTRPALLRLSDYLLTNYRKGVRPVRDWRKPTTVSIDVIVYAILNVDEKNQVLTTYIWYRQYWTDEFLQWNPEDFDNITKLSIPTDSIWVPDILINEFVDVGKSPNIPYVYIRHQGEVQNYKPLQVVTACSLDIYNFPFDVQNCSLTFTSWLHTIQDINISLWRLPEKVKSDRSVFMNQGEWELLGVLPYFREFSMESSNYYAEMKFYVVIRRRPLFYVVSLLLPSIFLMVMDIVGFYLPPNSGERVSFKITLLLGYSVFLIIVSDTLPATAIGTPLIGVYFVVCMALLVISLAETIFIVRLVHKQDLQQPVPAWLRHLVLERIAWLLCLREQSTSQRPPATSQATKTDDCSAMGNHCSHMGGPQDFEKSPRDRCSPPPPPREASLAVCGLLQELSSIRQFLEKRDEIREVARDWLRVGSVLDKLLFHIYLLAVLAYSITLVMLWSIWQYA
T1 sequence (O95264 22-441): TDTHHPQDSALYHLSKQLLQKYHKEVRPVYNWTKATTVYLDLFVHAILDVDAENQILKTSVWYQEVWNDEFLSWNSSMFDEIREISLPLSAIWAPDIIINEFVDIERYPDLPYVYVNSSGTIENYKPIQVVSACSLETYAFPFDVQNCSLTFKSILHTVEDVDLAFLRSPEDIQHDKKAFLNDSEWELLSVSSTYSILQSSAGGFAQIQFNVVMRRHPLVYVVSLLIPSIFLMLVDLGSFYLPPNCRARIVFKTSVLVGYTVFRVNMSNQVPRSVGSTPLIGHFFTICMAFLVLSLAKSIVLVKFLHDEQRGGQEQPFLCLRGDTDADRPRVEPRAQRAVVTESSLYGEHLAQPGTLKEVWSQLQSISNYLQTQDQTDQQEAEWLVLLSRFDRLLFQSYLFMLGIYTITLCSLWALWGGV

5-HT3A receptors [2] = target: T2, 5-HT3A receptors (Homo sapiens, UniProt P46098); assay: Competition binding with [^3H]VUF10166 at 5-HT3A receptors
T2 sequence (P46098 24-478): T1 sequence (P46098 24-478)

5-HT3AB receptors [3] = target: T1, 5-HT3AB receptors; assay: biochemical
5-HT3A receptors [4] = target: T2, 5-HT3A receptors; assay: biochemical
5-HT3A receptors [5] = target: T2, 5-HT3A receptors

inhibition of specific [^3H]VUF10166 binding (in words) (5-HT3AB receptors [1]; 5-HT3AB) | inhibition of specific [^3H]VUF10166 binding (in words) (5-HT3A receptors [2]; 5-HT3A) | Molecule | inhibition of specific [^3H]VUF10166 binding (in words) (5-HT3AB receptors [1]) | inhibition of specific [^3H]VUF10166 binding (in words) (5-HT3A receptors [2]) | other results
– | – | Picrotoxin | not | not and unaffected | –
– | – | CC(C)(C)[C@]1(O)CC2OC(=O)CC23C(=O)OC2OC(=O)[C@H](O)C231 (stereo partly shown) [Bilobalide] | not | not and unaffected | –
– | – | CN1CCc2cc3c(cc2[C@H]1[C@@H]1OC(=O)c2c1ccc1c2OCO1)OCO3 [Bicuculline] | not | not | –
– | – | COc1cc2c3cc1Oc1cc(ccc1O)C[C@@H]1c4c(cc(OC)c(O)c4Oc4ccc(cc4)C[C@@H]3N(C)CC2)CC[N+]1(C)C [d-Tubocurarine] | inhibited | inhibited | IC50 (5-HT3AB receptors [1]): 3.63 µM; IC50 (5-HT3A receptors [2]): 3.89 µM; IC50 (5-HT3AB receptors [3]): 51.3 µM; IC50 (5-HT3A receptors [4]): 24.5 µM
not | not | CC(=O)OCC[N+](C)(C)C [ACh] | – | – | –
not | not | NCC(=O)O [Glycine] | – | – | –
not | not | COc1ccc(-c2ccc(=N)n(CCCC(=O)O)n2)cc1 [Gabazine] | – | – | –
inhibited | inhibited | c1ccc2nc(N3CCNCC3)ccc2c1 [Quipazine] | – | – | –
– | – | CN1CCC[C@H]1c1cccnc1 [Nicotine] | – | – | IC50 (5-HT3AB receptors [1]): 0.174 µM; competition with [^3H]granisetron (in words) (5-HT3A receptors [5]): competed; IC50 (5-HT3A receptors [2]): 0.155 µM; IC50 (5-HT3AB receptors [3]): 0.275 µM; IC50 (5-HT3A receptors [4]): 0.977 µM
– | – | CC1C(=O)O[C@H]2[C@H](O)[C@@]34[C@H]5C[C@@H](C(C)(C)C)[C@@]36C(O)C(=O)O[C@H]6O[C@@]4(C(=O)O5)[C@@]12O (stereo partly shown) [Ginkgolide] | not | not and unaffected | –
– | – | CN1[C@@H]2CC[C@H]1C[C@@H](OC(=O)c1cc(Cl)cc(Cl)c1)C2 [MDL72222] | inhibited | inhibited | –
– | – | O=C1C[C@@H]2OCC=C3CN4CC[C@]56c7ccccc7N1[C@H]5[C@H]2[C@H]3C[C@H]46 [Strychnine] | – | – | IC50 (5-HT3AB receptors [1]): 0.55 µM; competition with [^3H]granisetron (in words) (5-HT3A receptors [5]): competed; IC50 (5-HT3A receptors [2]): 1.48 µM; IC50 (5-HT3AB receptors [3]): 14.1 µM; IC50 (5-HT3A receptors [4]): 50.1 µM
